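Abbreviation: GI50, concentration required for 50% inhibition of growth. At the TGI there is no net growth.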
Legend:
Experiment in all cases: growth of human tumour cells (NCI), 384-well format
[1] = test system: HCC-2998 colon
[2] = test system: MDA-MB-468 breast
[3] = test system: OVCAR-8 ovarian
[4] = test system: SF-295 CNS
[5] = test system: SW-620 colon
[6] = test system: OVCAR-5 ovarian
[7] = test system: NCI/ADR-RES ovarian
[8] = test system: PC-3 prostate
[9] = test system: SK-MEL-28 melanoma
[10] = test system: SF-539 CNS
[11] = test system: A498 renal
[12] = test system: CCRF-CEM leukemia
[13] = test system: NCI-H460 NSCLC
[14] = test system: RPMI-8226 leukemia
[15] = test system: TK-10 renal
[16] = test system: HT29 colon
[17] = test system: BT-549 breast
[18] = test system: M14 melanoma
[19] = test system: MDA-MB-435 melanoma
[20] = test system: MDA-MB-231 breast
[21] = test system: HCT-116 colon
[22] = test system: IGROV1 ovarian
[23] = test system: NCI-H522 lung
[24] = test system: NCI-H23 lung
[25] = test system: K-562 leukemia
[26] = test system: U251 glioblastoma
[27] = test system: SNB-19 CNS
[28] = test system: HCT-15 colon
[29] = test system: UACC-62 melanoma
[30] = test system: HOP-92 NSCLC
[31] = test system: MALME-3M melanoma
[32] = test system: OVCAR-4 ovarian
[33] = test system: NCI-H322M lung
[34] = test system: HOP-62 NSCLC
[35] = test system: ACHN renal
[36] = test system: MCF7 breast
[37] = test system: NCI-H226 lung
[38] = test system: RXF 393 renal
[39] = test system: SK-MEL-5 melanoma
[40] = test system: DU-145 prostate
[41] = test system: T-47D breast
[42] = test system: SK-MEL-2 melanoma
[43] = test system: A549 NSCLC
[44] = test system: COLO 205 colon
[45] = test system: LOX IMVI melanoma
[46] = test system: KM12 colon
[47] = test system: UACC-257 melanoma
[48] = test system: SN12C renal
[49] = test system: MOLT-4 leukemia
[50] = test system: 786-0 renal
[51] = test system: SK-OV-3 ovarian
[52] = test system: OVCAR-3 ovarian
[53] = test system: SF-268 CNS
[54] = test system: CAKI-1 renal
[55] = test system: HL-60(TB) leukemia
[56] = test system: UO-31 renal
[57] = test system: SR leukemia

CCN(c1cc(C#CCN2CCOCC2)cc(C(=O)NCc2c(C)cc(C)[nH]c2=O)c1C)C1CCC(N(C)CCOC)CC1 (centres undefined)
GI50 [1]: 8.42 µM
TGI [1]: 92.5 µM
GI50 [2]: 58.4 µM
TGI [2]: > 100 µM
GI50 [3]: > 100 µM
TGI [3]: > 100 µM
GI50 [4]: > 100 µM
TGI [4]: > 100 µM
GI50 [5]: > 100 µM
TGI [5]: > 100 µM
GI50 [6]: > 100 µM
TGI [6]: > 100 µM
GI50 [7]: > 100 µM
TGI [7]: > 100 µM
GI50 [8]: > 100 µM
TGI [8]: > 100 µM
GI50 [9]: > 100 µM
TGI [9]: > 100 µM
GI50 [10]: > 100 µM
TGI [10]: > 100 µM
GI50 [11]: 91.1 µM
TGI [11]: > 100 µM
GI50 [12]: 4.63 µM
TGI [12]: 21.4 µM
GI50 [13]: > 100 µM
TGI [13]: > 100 µM
GI50 [14]: 0.0254 µM
TGI [14]: 0.193 µM
GI50 [15]: > 100 µM
TGI [15]: > 100 µM
GI50 [16]: > 100 µM
TGI [16]: > 100 µM
GI50 [17]: > 100 µM
TGI [17]: > 100 µM
GI50 [18]: > 100 µM
TGI [18]: > 100 µM
GI50 [19]: > 100 µM
TGI [19]: > 100 µM
GI50 [20]: 24.1 µM
TGI [20]: > 100 µM
GI50 [21]: > 100 µM
TGI [21]: > 100 µM
GI50 [22]: > 100 µM
TGI [22]: > 100 µM
GI50 [23]: 32.8 µM
TGI [23]: > 100 µM
GI50 [24]: > 100 µM
TGI [24]: > 100 µM
GI50 [25]: > 100 µM
TGI [25]: > 100 µM
GI50 [26]: > 100 µM
TGI [26]: > 100 µM
GI50 [27]: > 100 µM
TGI [27]: > 100 µM
GI50 [28]: > 100 µM
TGI [28]: > 100 µM
GI50 [29]: 51.3 µM
TGI [29]: > 100 µM
GI50 [30]: 2.55 µM
TGI [30]: 34.7 µM
GI50 [31]: > 100 µM
TGI [31]: > 100 µM
GI50 [32]: 51.4 µM
TGI [32]: > 100 µM
GI50 [33]: > 100 µM
TGI [33]: > 100 µM
GI50 [34]: 67.2 µM
TGI [34]: > 100 µM
GI50 [35]: > 100 µM
TGI [35]: > 100 µM
GI50 [36]: > 100 µM
TGI [36]: > 100 µM
GI50 [37]: 55.9 µM
TGI [37]: > 100 µM
GI50 [38]: 3.37 µM
TGI [38]: > 100 µM
GI50 [39]: > 100 µM
TGI [39]: > 100 µM
GI50 [40]: > 100 µM
TGI [40]: > 100 µM
GI50 [41]: > 100 µM
TGI [41]: > 100 µM
GI50 [42]: 72.9 µM
TGI [42]: > 100 µM
GI50 [43]: > 100 µM
TGI [43]: > 100 µM
GI50 [44]: > 100 µM
TGI [44]: > 100 µM
GI50 [45]: > 100 µM
TGI [45]: > 100 µM
GI50 [46]: > 100 µM
TGI [46]: > 100 µM
GI50 [47]: > 100 µM
TGI [47]: > 100 µM
GI50 [48]: > 100 µM
TGI [48]: > 100 µM
GI50 [49]: 1.45 µM
TGI [49]: 3.55 µM
GI50 [50]: > 100 µM
TGI [50]: > 100 µM
GI50 [51]: > 100 µM
TGI [51]: > 100 µM
GI50 [52]: 40.6 µM
TGI [52]: > 100 µM
GI50 [53]: > 100 µM
TGI [53]: > 100 µM
GI50 [54]: > 100 µM
TGI [54]: > 100 µM
GI50 [55]: > 100 µM
TGI [55]: > 100 µM
GI50 [56]: > 100 µM
TGI [56]: > 100 µM
GI50 [57]: 82.8 µM
TGI [57]: > 100 µM
